Assay results: patent US9562036B2, “Fluoromethyl-substituted pyrrole carboxamides as CaV2.2 calcium channel blockers” (GRÜNENTHAL GMBH, priority 2013, dated 2017)

Target: T1, Human CaV2.2 channels (Homo sapiens, UniProt Q00975)
T1 construct: expressed in transfected cells; also stably expressing Kir2.3)
Assay: Fluorescent assay for CaV2.2 channels using potassium depolarization to induce channel opening (FLIPR, Fluo 4)
Assay type: cell-based
Conditions: 3 μM test compound; 30 mM KCl alternative assay buffer (inactivated channel state); HEK293 cells; read-out: %-Inhib (CaV2.2) @3 μM @30 mM KCl
Excerpt: In the process, the Ca^2+ influx is quantified in the FLIPR assay with the aid of a Ca^2+-sensitive dye (type Fluo-4, Molecular Probes Europe BV, Leiden, the Netherlands) in a fluorescent imaging plate reader (FLIPR 3, Molecular Devices, Sunnyvale, USA), as described hereinafter.
2. Assay Descriptions and Biological Data: 2.1 Fluorescent Assay for CaV2.2 Channels Using Potassium Depolarization to Induce Channel Opening
Human CaV2.2 channels were stably expressed in HEK293 cells together with alpha2-delta and beta subunits of voltage gated calcium channels. In addition, an inwardly rectifying potassium channel (Kir2.3) was stably expressed in these cells to augment control of the cell membrane potential by the concentration of extracellular potassium ions. Raise of the extracellular potassium concentration leads to depolarization of the membrane potential and thus regulates the voltage dependent state of CaV2.2 channels. For preparation, cells were seeded in black poly-D-lysine coated 96-well plates (Becton Dickinson, Biocoat 4640) in 100 μL medium [500 mL DMEM/F-12 plus Glutamax (Invitrogen 31331-093) plus 5.5 mL MEM NEAA 100× (Invitrogen 11140-035) plus 50 mL FBS decomplemented (Invitrogen 10270-106) plus 200 μg/mL Geneticin (Invitrogen 10131-027) plus 50 μg/mL Hygromycin B (Invitrogen 10687-010) plus 2 μg/mL Blasticidin (anti-bl5b Invivo-Gen) plus 0.2 μg/mL Puromycin (A 11138-03)] at a cell density of 30.000 cells per well. Plates were incubated at 37° C. (5% CO2) for 20 to 23 h. On the day of experiment medium was discarded and cells were loaded with Fluo 4 by addition of 100 μL of basic assay buffer (10 mM HEPES, 1 mM KCl, 149 mM NaCl, 0.8 mM CaC2, 1.7 mM MgCl2, 10 mM Glucose, 0.1% BSA. pH 7.4) containing 2 μM Fluo 4 (Molecular Probes; F-14201), 0.01% pluronic acid (Molecular Probes; P-6866) and 2.5 mM probenecid (Molecular Probes; P36400). Cells were incubated in the dark at 25° C. for 60 min. Then dye containing buffer was discarded and 100 μL basic (1 mM KCl) or alternative (30 mM KCl) assay buffer was added. The alternative assay buffer contained altered concentrations of KCl (30 mM) and NaCl (120 mM) and was used in order to promote the inactivated channel state. After that 25 μL of basic or alternative assay buffer with or without test compound were added and cells were incubated again in the dark at 25° C. for 15 min. Fluorescence intensity was measured on a FLIPR 3 instrument (Molecular Devices Corp., Sunnyvale, Calif.) with excitation at 480 nm and emission at 535 nm. After continuously reading fluorescence for 30 sec, 50 μL of basic assay buffer containing 210 mM KCl (NaCl omitted) were added for depolarization. Peak fluorescent signal intensity was determined and the amplitude of the peak signal, normalized to base line, was used to measure channel inhibition by test compounds.

T1 sequence (Q00975 whole entry): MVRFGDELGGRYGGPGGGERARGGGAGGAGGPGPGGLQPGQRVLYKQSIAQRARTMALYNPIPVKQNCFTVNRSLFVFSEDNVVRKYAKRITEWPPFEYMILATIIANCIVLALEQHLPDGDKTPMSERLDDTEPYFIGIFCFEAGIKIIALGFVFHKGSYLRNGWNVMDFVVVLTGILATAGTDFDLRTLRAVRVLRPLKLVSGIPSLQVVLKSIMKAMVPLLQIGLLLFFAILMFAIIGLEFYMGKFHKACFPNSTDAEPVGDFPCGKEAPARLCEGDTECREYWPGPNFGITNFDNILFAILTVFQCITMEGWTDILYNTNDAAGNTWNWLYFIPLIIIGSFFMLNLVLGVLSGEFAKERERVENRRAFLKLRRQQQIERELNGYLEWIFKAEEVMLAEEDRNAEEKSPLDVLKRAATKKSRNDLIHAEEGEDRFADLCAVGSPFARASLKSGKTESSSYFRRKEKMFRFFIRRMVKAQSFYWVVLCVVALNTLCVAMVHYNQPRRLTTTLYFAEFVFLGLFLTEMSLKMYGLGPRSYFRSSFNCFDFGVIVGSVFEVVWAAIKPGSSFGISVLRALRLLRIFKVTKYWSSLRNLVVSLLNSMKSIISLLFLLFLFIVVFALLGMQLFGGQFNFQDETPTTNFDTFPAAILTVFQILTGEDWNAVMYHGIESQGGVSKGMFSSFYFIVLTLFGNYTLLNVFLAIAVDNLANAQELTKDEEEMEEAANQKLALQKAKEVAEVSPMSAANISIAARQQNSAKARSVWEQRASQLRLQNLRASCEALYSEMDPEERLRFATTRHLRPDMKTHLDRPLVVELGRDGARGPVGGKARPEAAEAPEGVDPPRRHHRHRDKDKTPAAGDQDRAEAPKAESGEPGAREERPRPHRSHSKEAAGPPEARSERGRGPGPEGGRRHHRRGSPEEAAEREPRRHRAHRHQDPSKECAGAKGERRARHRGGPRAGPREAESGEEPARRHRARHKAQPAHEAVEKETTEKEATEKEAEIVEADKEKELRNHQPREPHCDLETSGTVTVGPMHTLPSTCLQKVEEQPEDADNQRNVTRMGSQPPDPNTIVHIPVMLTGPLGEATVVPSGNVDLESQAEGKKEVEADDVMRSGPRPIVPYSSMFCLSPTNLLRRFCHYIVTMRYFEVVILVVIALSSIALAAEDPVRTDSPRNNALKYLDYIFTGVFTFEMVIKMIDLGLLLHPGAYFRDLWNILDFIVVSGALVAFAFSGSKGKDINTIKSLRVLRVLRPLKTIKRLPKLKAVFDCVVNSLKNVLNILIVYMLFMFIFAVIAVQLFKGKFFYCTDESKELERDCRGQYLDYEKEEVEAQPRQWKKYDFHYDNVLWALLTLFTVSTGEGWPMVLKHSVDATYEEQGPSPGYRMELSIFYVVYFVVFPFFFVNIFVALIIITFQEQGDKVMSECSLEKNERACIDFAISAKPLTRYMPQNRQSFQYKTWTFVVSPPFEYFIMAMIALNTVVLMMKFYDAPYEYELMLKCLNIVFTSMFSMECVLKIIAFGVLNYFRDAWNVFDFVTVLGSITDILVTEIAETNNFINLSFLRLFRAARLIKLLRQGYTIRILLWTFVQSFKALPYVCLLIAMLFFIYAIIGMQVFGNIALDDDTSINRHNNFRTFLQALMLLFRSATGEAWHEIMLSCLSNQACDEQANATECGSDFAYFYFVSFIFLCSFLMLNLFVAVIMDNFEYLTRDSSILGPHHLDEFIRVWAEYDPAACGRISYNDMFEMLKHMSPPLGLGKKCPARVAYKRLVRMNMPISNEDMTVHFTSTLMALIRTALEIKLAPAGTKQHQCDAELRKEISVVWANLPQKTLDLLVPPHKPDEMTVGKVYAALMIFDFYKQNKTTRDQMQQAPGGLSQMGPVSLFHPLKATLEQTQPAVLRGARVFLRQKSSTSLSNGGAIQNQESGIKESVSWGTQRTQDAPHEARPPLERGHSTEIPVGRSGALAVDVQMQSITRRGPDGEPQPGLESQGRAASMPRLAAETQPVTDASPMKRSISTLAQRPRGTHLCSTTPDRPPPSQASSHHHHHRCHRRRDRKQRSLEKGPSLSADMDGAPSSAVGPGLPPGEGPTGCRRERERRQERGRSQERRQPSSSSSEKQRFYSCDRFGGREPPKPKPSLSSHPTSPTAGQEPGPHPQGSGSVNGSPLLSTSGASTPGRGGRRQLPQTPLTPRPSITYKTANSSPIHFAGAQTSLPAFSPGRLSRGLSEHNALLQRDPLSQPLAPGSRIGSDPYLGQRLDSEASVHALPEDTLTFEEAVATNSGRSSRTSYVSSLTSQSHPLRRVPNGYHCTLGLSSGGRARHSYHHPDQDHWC

Q: For `Cc1c(-c2ncc(Cl)cn2)c(C(=O)N2CCS(=O)(=O)CC2)n(Cc2ccccc2)c1C(F)(F)F` [Example 44, [1-Benzyl-3-(5-chloro-pyrimidin-2-yl)-4-methyl-5-(trifluoromethyl)-1H-pyrrol-2-yl]-(1,1-dioxo-[1,4]thiazinan-4-yl)-methanone], which inhibition at 3 µM is on record?
A: 75 to 95%

Q: For `Cc1c(-c2cncnc2)c(C(=O)N2CCOCC2)n(Cc2ccccc2)c1C(F)(F)F` [Example 15, [1-Benzyl-4-methyl-3-pyrimidin-5-yl-5-(trifluoromethyl)-1H-pyrrol-2-yl]-morpholin-4-yl-methanone], which inhibition at 3 µM is on record?
A: 40 to 75%

Q: `Cc1c(-c2cn[nH]c2)c(C(=O)N2CCOCC2)n(Cc2ccccc2)c1C(F)(F)F` [Example 10, (1-Benzyl-4-methyl-3-(1H-pyrazol-4-yl)-5-(trifluoromethyl)-1H-pyrrol-2-yl)(morpholino)methanone] was tested. Which inhibition at 3 µM did it give?
A: 40 to 75%

Q: How did the inhibition at 3 µM turn out when `COc1ccc(-c2c(C)c(C(F)(F)F)n(Cc3ccccc3)c2C(=O)N2CCOCC2)cn1` [Example 06, (1-Benzyl-3-(6-methoxypyridin-3-yl)-4-methyl-5-(trifluoromethyl)-1H-pyrrol-2-yl)(morpholino)methanone] was run?
A: 75 to 95%

Q: How did the inhibition at 3 µM turn out when `Cc1c(-c2ncccn2)c(C(=O)N(C)CC(C)(C)C)n(Cc2ccccc2)c1C(F)(F)F` [Example 35, 1-Benzyl-N,4-dimethyl-N-neopentyl-3-(pyrimidin-2-yl)-5-(trifluoromethyl)-1H-pyrrole-2-carboxamide] was run?
A: 75 to 95%

Q: Which inhibition at 3 µM does the source give for `Cc1c(-c2ccc(Cl)cn2)c(C(=O)N(C)CCS(C)(=O)=O)n(Cc2ccccc2)c1C(F)(F)F` [Example 43, 1-Benzyl-3-(5-chloro-pyridin-2-yl)-N,4-dimethyl-N-(2-methylsulfonyl-ethyl)-5-(trifluoromethyl)-1H-pyrrole-2-carboxylic acid amide] here?
A: > 95%

Q: Which inhibition at 3 µM does the source give for `Cc1c(-c2cnn(C)c2)c(C(=O)N2CCOCC2)n(Cc2ccccc2)c1C(F)(F)F` [Example 08, (1-Benzyl-4-methyl-3-(1-methyl-1H-pyrazol-4-yl)-5-(trifluoromethyl)-1H-pyrrol-2-yl)(morpholino)methanone] here?
A: 40 to 75%

Q: How did the inhibition at 3 µM turn out when `Cc1c(-c2ncc(C(F)(F)F)cc2F)c(C(=O)N2CCOCC2)n(Cc2ccccc2)c1C(F)(F)F` [Example 24, [1-Benzyl-3-[3-fluoro-5-(trifluoromethyl)-pyridin-2-yl]-4-methyl-5-(trifluoromethyl)-1H-pyrrol-2-yl]-morpholin-4-yl-methanone] was run?
A: > 95%

Q: With `Cc1c(-c2ccc(Cl)cn2)c(C(=O)NC(C)C)n(Cc2ccccc2)c1C(F)(F)F` [Example 53, 1-Benzyl-3-(5-chloro-pyridin-2-yl)-N-isopropyl-4-methyl-5-(trifluoromethyl)-1H-pyrrole-2-carboxylic acid amide] as the compound, how does the inhibition at 3 µM read?
A: 75 to 95%

Q: `Cc1c(-c2ccc(Cl)cn2)c(C(=O)N(C)CC(C)(C)C)n(Cc2ccccc2)c1C(F)(F)F` [Example 41, 1-Benzyl-3-(5-chloro-pyridin-2-yl)-N-(2,2-dimethyl-propyl)-N,4-dimethyl-5-(trifluoromethyl)-1H-pyrrole-2-carboxylic acid amide] was tested. Which inhibition at 3 µM did it give?
A: > 95%

Q: With `Cc1c(-c2cnccn2)c(C(=O)N(C)CC(C)(C)C)n(Cc2ccccc2)c1C(F)(F)F` [Example 34, 1-Benzyl-N,4-dimethyl-N-neopentyl-3-(pyrazin-2-yl)-5-(trifluoromethyl)-1H-pyrrole-2-carboxamide] as the compound, how does the inhibition at 3 µM read?
A: 75 to 95%

Q: How did the inhibition at 3 µM turn out when `COc1ncc(-c2c(C)c(C(F)(F)F)n(Cc3ccccc3)c2C(=O)N2CCOCC2)cn1` [Example 14, [1-Benzyl-3-(2-methoxy-pyrimidin-5-yl)-4-methyl-5-(trifluoromethyl)-1H-pyrrol-2-yl]-morpholin-4-yl-methanone] was run?
A: 40 to 75%

Q: For `Cc1c(-c2ccc(F)cn2)c(C(=O)N2CCOCC2)n(Cc2ccccc2)c1C(F)(F)F` [Example 36, (1-Benzyl-3-(5-fluoropyridin-2-yl)-4-methyl-5-(trifluoromethyl)-1H-pyrrol-2-yl)(morpholino)methanone], which inhibition at 3 µM is on record?
A: 75 to 95%

Q: For `Cc1c(-c2ncc(Cl)cn2)c(C(=O)N(C)CC(C)(C)C)n(Cc2ccccc2)c1C(F)(F)F` [Example 18, 1-Benzyl-3-(5-chloro-pyrimidin-2-yl)-N-(2,2-dimethyl-propyl)-N,4-dimethyl-5-(trifluoromethyl)-1H-pyrrole-2-carboxylic acid amide], which inhibition at 3 µM is on record?
A: > 95%

Q: For `Cc1c(-c2ccc(Cl)s2)c(C(=O)N(C)CC(C)(C)C)n(Cc2ccccc2)c1C(F)(F)F` [Example 13, 1-Benzyl-3-(5-chloro-thiophen-2-yl)-N-(2,2-dimethyl-propyl)-N,4-dimethyl-5-(trifluoromethyl)-1H-pyrrole-2-carboxylic acid amide], which inhibition at 3 µM is on record?
A: 75 to 95%

Q: With `Cc1c(-c2ncc(Cl)cn2)c(C(=O)N(C)CC(C)(C)C(=O)N(C)C)n(Cc2ccccc2)c1C(F)(F)F` [Example 58, 1-Benzyl-3-(5-chloro-pyrimidin-2-yl)-N-[2-(dimethyl-carbamoyl)-2-methyl-propyl]-N,4-dimethyl-5-(trifluoromethyl)-1H-pyrrole-2-carboxylic acid amide] as the compound, how does the inhibition at 3 µM read?
A: > 95%

Q: How did the inhibition at 3 µM turn out when `Cc1c(-c2ccnnc2)c(C(=O)N(C)CC(C)(C)C)n(Cc2ccccc2)c1C(F)(F)F` [Example 32, 1-Benzyl-N,4-dimethyl-N-neopentyl-3-(pyridazin-4-yl)-5-(trifluoromethyl)-1H-pyrrole-2-carboxamide] was run?
A: 75 to 95%

Q: For `COc1cnc(-c2c(C)c(C(F)(F)F)n(Cc3ccccc3)c2C(=O)N(C)CC(C)(C)C)cn1` [Example 01, 1-benzyl-3-(5-methoxypyrazin-2-yl)-N,4-dimethyl-N-neopentyl-5-(trifluoromethyl)-1H-pyrrole-2-carboxamide], which inhibition at 3 µM is on record?
A: 75 to 95%

Q: `Cc1c(-c2cnn(C)c2)c(C(=O)N(C)CC(C)(C)C)n(Cc2ccccc2)c1C(F)(F)F` [Example 04, 1-Benzyl-N,4-dimethyl-3-(1-methyl-1H-pyrazol-4-yl)-N-neopentyl-5-(trifluoromethyl)-1H-pyrrole-2-carboxamide] was tested. Which inhibition at 3 µM did it give?
A: > 95%

Q: How did the inhibition at 3 µM turn out when `Cc1c(-c2ccc(O)nc2)c(C(=O)N(C)CC(C)(C)C)n(Cc2ccccc2)c1C(F)(F)F` [Example 03, 1-Benzyl-3-(6-hydroxypyridin-3-yl)-N,4-dimethyl-N-neopentyl-5-(trifluoromethyl)-1H-pyrrole-2-carboxamide] was run?
A: 40 to 75%

Q: `Cc1c(-c2ccc(Cl)nn2)c(C(=O)N(C)CC(C)(C)C)n(Cc2ccccc2)c1C(F)(F)F` [Example 22, 1-Benzyl-3-(6-chloro-pyridazin-3-yl)-N-(2,2-dimethyl-propyl)-N,4-dimethyl-5-(trifluoromethyl)-1H-pyrrole-2-carboxylic acid amide] was tested. Which inhibition at 3 µM did it give?
A: > 95%

Q: `Cc1c(-c2ccc(Cl)nn2)c(C(=O)N2CCOCC2)n(Cc2ccccc2)c1C(F)(F)F` [Example 29, [1-Benzyl-3-(6-chloro-pyridazin-3-yl)-4-methyl-5-(trifluoromethyl)-1H-pyrrol-2-yl]-morpholin-4-yl-methanone] was tested. Which inhibition at 3 µM did it give?
A: 40 to 75%

Q: For `Cc1c(-c2ncc(F)cn2)c(C(=O)N2CCOCC2)n(Cc2ccccc2)c1C(F)(F)F` [Example 38, (1-Benzyl-3-(5-fluoropyrimidin-2-yl)-4-methyl-5-(trifluoromethyl)-1H-pyrrol-2-yl)(morpholino)methanone], which inhibition at 3 µM is on record?
A: 40 to 75%

Q: With `Cc1c(-c2ncc(C3CC3)cn2)c(C(=O)N(C)C(C)C)n(Cc2ccccc2)c1C(F)(F)F` [Example 56, 1-Benzyl-3-(5-cyclopropyl-pyrimidin-2-yl)-N-isopropyl-N,4-dimethyl-5-(trifluoromethyl)-1H-pyrrole-2-carboxylic acid amide] as the compound, how does the inhibition at 3 µM read?
A: > 95%

Q: For `Cc1cc(C#N)ncc1-c1c(C)c(C(F)(F)F)n(Cc2ccccc2)c1C(=O)N(C)CC(C)(C)C` [Example 19, 1-Benzyl-3-(6-cyano-4-methylpyridin-3-yl)-N,4-dimethyl-N-neopentyl-5-(trifluoromethyl)-1H-pyrrole-2-carboxamide], which inhibition at 3 µM is on record?
A: 75 to 95%

Q: How did the inhibition at 3 µM turn out when `Cc1c(-c2cncnc2)c(C(=O)N(C)CC(C)(C)C)n(Cc2ccccc2)c1C(F)(F)F` [Example 11, 1-Benzyl-N-(2,2-dimethyl-propyl)-N,4-dimethyl-3-pyrimidin-5-yl-5-(trifluoromethyl)-1H-pyrrole-2-carboxylic acid amide] was run?
A: 75 to 95%
